This note sets out measurements from patent publication US20250295656A1, “COMBINATION OF LURBINECTEDIN AND IMMUNE CHECKPOINT INHIBITORS” (priority 2020, published 2025).

What all share (assay type): cell-based, human
The test system of one assay is U2OS WT cells. Put plainly: Cytoplasmic quinacrine granularity (intracellular ATP, indicator of ATP release). The settings on record: lurbinectedin 1 nM to 1 μM, MTX 1 and 3 μM, dose-dependent, decreased over time, vs untreated controls. Here is the method:
(§1) (a) Human osteosarcoma U2OS (a), human breast cancer HCC70 (b) human colon cancer HT29 cells (c) and murine methylcholantrene-induced fibrosarcoma MCA205 cells (d) were treated with lurbinectedin (Lurbi, 1 nM, 10 nM, 100 nM and 1 μM) for the indicated times. Subsequently, the cells were stained with 1 μM Hoechst 33342 and 1 μM propidium iodide and assessed for the loss of viability by automated image acquisition. Images were segmented, cellular debris was excluded and the number of cells with normal nuclear morphology was enumerated. Cells stably expressing CALR-GFP were treated as above. Following the cells were fixed with 3.7% of PFA, stained with 1 μM Hoechst 33342 and assessed by automated image acquisition. Images were segmented, cellular debris was excluded and CALR-GFP granularity (a surrogate marker of CALR exposure) was evaluated in the cytoplasmic region of cells with normal nuclear morphology. Wild type cells were treated as above and then assessed for cytoplasmic quinacrine granularity (after staining with the ATP-sensitive dye quinacrine together with Hoechst 33342) by automated image acquisition, segmentation and analysis. Cells stably expressing HMGB1-GFP were treated as above and then assessed for nuclear HMGB1-GFP fluorescence intensity. The cells were fixed and stained with Hoechst 33342 and images were acquired, segmented and analyzed. […]

The test system of assay [1] is U2OS cells stably expressing CALR-GFP. Put plainly: CALR-GFP granularity (surrogate marker of CALR exposure). As to conditions: lurbinectedin 1 nM to 1 μM, MTX 1 and 3 μM, 4-32 hours, vs untreated controls. How it is done: as §1
The subject of assay [2] is U2OS biosensor cells expressing GFP under the MX1 promoter. The assay is described as follows: Type I IFN response (MX1-GFP biosensor cells treated with supernatant). As to conditions: supernatant of treated U2OS cells after 48 hours fresh media; biosensor cells 48 hours; throughout all time points. How it is done:
In a systematic screening campaign, the capacity of lurbinectedin to induce immunogenic cell death in cancer cells was assessed in human osteosarcoma U2OS cells stably expressing fluorescent biosensors for the detection of CALR-relocation (as a surrogate marker for CALR surface exposure), HMGB1 release and Type I IFN responses together with U2OS WT cells stained with the ATP-sensitive dye quinacrine. […] The induction of cell death was evaluated based on changes in the nuclear morphology visualized by means of the DNA intercalating dye Hoechst 33342.

The subject of assay [3] is U2OS cells stably expressing HMGB1-GFP. The assay is described as follows: HMGB1 release (loss of nuclear HMGB1-GFP fluorescence). As to conditions: lurbinectedin 1 nM to 1 μM, MTX 1 and 3 μM, medium to late time points. Here is the method:
as §1

Turning to `O=C1c2c(O)ccc(O)c2C(=O)c2c(NCCNCCO)ccc(NCCNCCO)c21` [MTX, mitoxantrone], the “ATP signal (cytoplasmic quinacrine granularity)” value with U2OS WT cells is listed as “significant decrease”. Also, the CALR-granularity entry in assay [1] is “time- and dose-dependent increase”. Besides, in assay [2], the “de novo GFP signal intensity (type 1 IFN response)” value was “significant increase”. Also, the “nuclear GFP signal (HMGB1-GFP)” value in assay [3] is reported as “significant decrease”.
